Measurements published in paper PMC10577221, “A cyclic peptide-based PROTAC induces intracellular degradation of palmitoyltransferase and potently decreases PD-L1 expression in human cervical cancer cells” (Frontiers in Immunology, 2023).

Test system: C33A cells
Test: Colony formation assay
Assay type: cell-based, human
Conditions: 14 days culture, compared to blank control
Method: Cells treated with drugs were separately seeded in a 6-well plate and cultured continuously for 14 days. During this period, the culture medium was changed every 2-3 days. Once visible cell colonies formed, the culture medium was removed, and the cells were fixed with 4% paraformaldehyde for 30 minutes, followed by staining with 0.1% crystal violet for 30 minutes. Finally, the colonies were counted and photographed using an optical microscope.

## N.N.[Cl][Pt][Cl] [cisplatin]
  number of C33A colonies, single agent: decreased
